Laboratory results from patent US11058700B2, “Macrocyclic lactones and uses thereof as modulators of purinergic receptors” (City of Hope, priority 2015, dated 2021).

How the values were obtained:
4T1.2 cells = assay: Cell viability (acid phosphatase assay) of cancer cells treated with Ivermectin; format: cell-based, mouse; conditions: for effect on Ivermectin-induced cell death: cells treated with Ivermectin (32 μM, 4 h in figure legends) in the presence of the agent
Experimental: Cell viability. Cancer cells were plated on 96 well flat-bottom plates and allowed to attach overnight. Cells were then pre-incubated with drugs for 1 h and treated with Ivermectin for 4 h. In the case of 24 h and 48 h incubations the cells, Ivermectin and drugs were plated together. All treatments and controls were done in triplicate wells and results were validated in at least two independent experiments. Following treatment the plates were washed once with PBS and cell viability was measured using the acid phosphatase assay. Briefly, cells were incubated for 1h at 37° C. in 100 μL assay buffer (0.16 M sodium acetate, 0.1% Triton-X-100, supplemented with 4-Nitrophenyl phosphate disodium salt hexahydrate, Sigma Aldrich, at 0.00263 g/ml). Reaction was stopped using 10 μL of 1N sodium hydroxide. Absorption at 405 nm was measured within 10 min using a multi-well plate reader. Mode of cell death and viability of cells in suspension was evaluated using flow cytometry. Briefly, cancer cells were pre-incubated with drugs for 30 min to 1 h, as indicated, treated with Ivermectin for 4 h in 5 ml FACS tubes , washed twice in PBS and stained with PE-conjugated Annexin V and 7AAD (1 μl per 100 μl/200,000 cancer cells) for 15 min.

[1] = system: P2X4/P2X7/Pannexin-1 channels; assay: Membrane permeabilization to YOPRO-1; format: cell-based, mouse; conditions: 4T1.2 cells, 3 mM ATP and 32 μM Ivermectin
Experimental: FIGS. 3A-3G. Dual roles of ATP and purinergic signaling in Ivermectin's killing. FIG. 3A: Depletion of extracellular ATP with Apyrase (2500 μunits/ml) exacerbates killing of 4T1.2 cell by Ivermectin. FIG. 3B: Extracellular Ca^2− and ATP contain Ivermectin-induced cell swelling. 4T1.2 cells were treated with 32 μM Ivermectin for 4 h in the presence of 1 mM EDTA or 2500 μunits/ml Apyrase. FIG. 3C: Ivermectin (0.5-32 μM) and high concentrations of extracellular ATP (0.3-3 mM) synergistically open pannexin-1 channels and permeabilize the membrane on live cells (7AAD-positive dead cells were gated out). 4T1.2 cells were treated for 30 min as indicated in the presence of 7 AAD and 5 μM YOPRO-1. FIG. 3D: Analysis of supernatants from Ivermectin-treated murine and human TNBC cells showing rapid release of ATP followed by its transient depletion. Depletion of extracellular ATP with Apyrase (2500 μunits/ml) was used as a positive control. FIG. 3E: Analysis of membrane-proximal ATP levels using cancer cells engineered to express a membrane-bound Luciferase. […] FIG. 3G: The P2X7-specific inhibitor KN-62 (1-10 μM) blocks Ivermectin cytotoxicity (IVM 8-32 μM, 4-48 h treatments). Asterisk (*) indicates p<0.05 relative to untreated or Ivermectin alone controls, respectively.
FIGS. 10A-10L. Extracellular Dual roles of ATP and purinergic signaling in Ivermectin's killing. 4T1.2 cells were treated with Ivermectin for 4 h in the presence of different inhibitors at μM concentrations as indicated. FIG. 10A: The non-specific P2 purinergic receptor inhibitor Suramin (4-400 μM) exacerbates Ivermectin-induced cell death. FIG. 10B: Inhibition of extracellular ATPases with PSB 069 protects against Ivermectin cytotoxicity. FIG. 10C: Blockade of pannexin-1 channels with Panx-1 mimetic blocking peptide (Anaspec) and Probenecid at μM concentrations as indicated exacerbates killing. […] FIG. 10E: ATP plays a transiently protective role only in the mouse but not human breast cancer cells. 4T1.2 and MDA-MB-231 cells were treated with 32 μM Ivermectin for 4 h in the presence of ATP at mM concentrations as indicated. FIG. 10F: qPCR showing up-regulation of P2X4 and P2X7 receptors on several murine cancer cell lines, including 4T1.2 and DD-Her2/neu (breast), and B16 (melanoma). […] Expression of P2X and P2Y purinergic receptors, NOX family members, GABA, and Glycine receptors was analyzed using publicly available breast cancer cell lines datasets. Statistically significant (p<0.05) up-regulation and down-regulation in breast cancer versus normal cells is shown in red and blue, respectively. FIG. 10H: Correlation between sensitivity to Ivermectin and ATP across various human cancer cell lines. Cancer cells were treated for 24 h with 3 mM ATP or Ivermectin at 16 and 32 μM doses as indicated. […]

SMILES | KN-62 needed to protect against Ivermectin-induced cell death (4T1.2 cells) | long-term protection against Ivermectin (4T1.2 cells; 24 h, 12 μM IVM) | effect on Ivermectin-induced cell death (4T1.2 cells) | block of ATP+Ivermectin-induced membrane permeabilization to YOPRO-1 [1]
CN([C@@H](Cc1ccc(OS(=O)(=O)c2cccc3cnccc23)cc1)C(=O)N1CCN(c2ccccc2)CC1)S(=O)(=O)c1cccc2cnccc12 [KN-62] | More than 1 μM | long-term protection against Ivermectin and ATP that extended up to 24 h | effective at blocking Ivermectin-induced necrotic and apoptotic cell death | suppressed permeabilization to YOPRO-1 in a dose-dependent fashion
COc1ccc(S(=O)(=O)N(CCO)c2ccccc2CN(C)C/C=C/c2ccc(Cl)cc2)cc1 [KN-93] |  |  | effectively blocked Ivermectin-induced cell death | most potent at blocking ATP- and Ivermectin-induced membrane permeabilization to YOPRO-1
